This passage reports AC50 results from ChEMBL document CHEMBL5291721, “A preclinical secondary pharmacology resource illuminates target-adverse drug reaction associations of marketed drugs” (Nat Commun, 2023).

Some results are limits rather than exact numbers.

In experiment [1] the target is T1, Alpha-2B adrenergic receptor (Homo sapiens, UniProt P18089).
T1 sequence (P18089 whole entry): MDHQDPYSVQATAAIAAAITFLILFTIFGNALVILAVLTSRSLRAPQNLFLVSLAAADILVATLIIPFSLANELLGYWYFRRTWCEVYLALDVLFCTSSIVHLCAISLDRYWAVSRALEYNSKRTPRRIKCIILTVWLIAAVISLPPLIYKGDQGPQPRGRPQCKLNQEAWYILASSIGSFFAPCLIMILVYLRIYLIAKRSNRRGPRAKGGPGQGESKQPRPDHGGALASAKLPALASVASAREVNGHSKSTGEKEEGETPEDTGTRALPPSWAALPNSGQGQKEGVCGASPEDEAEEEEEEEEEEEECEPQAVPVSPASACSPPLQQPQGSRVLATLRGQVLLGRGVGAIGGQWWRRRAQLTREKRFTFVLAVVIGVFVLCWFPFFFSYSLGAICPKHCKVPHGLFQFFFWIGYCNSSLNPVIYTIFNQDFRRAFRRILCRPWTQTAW

For the next experiment, the target named is Cannabinoid receptor 1 (Homo sapiens, UniProt P21554). It is filed as functional, cell-based.
Experiment [2] concerns the target Beta-2 adrenergic receptor (Homo sapiens, UniProt P07550).
Experiment [3] addresses Glutamate receptor ionotropic, NMDA 1 (Rattus norvegicus, UniProt P35439).
For experiment [4], the target named is Voltage-dependent L-type calcium channel subunit alpha-1C (Rattus norvegicus, UniProt P22002). It counts as functional.
Experiment [5] addresses 5-hydroxytryptamine receptor 2A (Homo sapiens, UniProt P28223). It counts as functional, cell-based.
Another experiment deals with Vasopressin V2 receptor (Homo sapiens, UniProt P30518).
Another experiment has as its target Melanocortin receptor 4 (Homo sapiens, UniProt P32245).
The target of experiment [6] is T2, Progesterone receptor (Homo sapiens, UniProt P06401).
T2 sequence (P06401 whole entry): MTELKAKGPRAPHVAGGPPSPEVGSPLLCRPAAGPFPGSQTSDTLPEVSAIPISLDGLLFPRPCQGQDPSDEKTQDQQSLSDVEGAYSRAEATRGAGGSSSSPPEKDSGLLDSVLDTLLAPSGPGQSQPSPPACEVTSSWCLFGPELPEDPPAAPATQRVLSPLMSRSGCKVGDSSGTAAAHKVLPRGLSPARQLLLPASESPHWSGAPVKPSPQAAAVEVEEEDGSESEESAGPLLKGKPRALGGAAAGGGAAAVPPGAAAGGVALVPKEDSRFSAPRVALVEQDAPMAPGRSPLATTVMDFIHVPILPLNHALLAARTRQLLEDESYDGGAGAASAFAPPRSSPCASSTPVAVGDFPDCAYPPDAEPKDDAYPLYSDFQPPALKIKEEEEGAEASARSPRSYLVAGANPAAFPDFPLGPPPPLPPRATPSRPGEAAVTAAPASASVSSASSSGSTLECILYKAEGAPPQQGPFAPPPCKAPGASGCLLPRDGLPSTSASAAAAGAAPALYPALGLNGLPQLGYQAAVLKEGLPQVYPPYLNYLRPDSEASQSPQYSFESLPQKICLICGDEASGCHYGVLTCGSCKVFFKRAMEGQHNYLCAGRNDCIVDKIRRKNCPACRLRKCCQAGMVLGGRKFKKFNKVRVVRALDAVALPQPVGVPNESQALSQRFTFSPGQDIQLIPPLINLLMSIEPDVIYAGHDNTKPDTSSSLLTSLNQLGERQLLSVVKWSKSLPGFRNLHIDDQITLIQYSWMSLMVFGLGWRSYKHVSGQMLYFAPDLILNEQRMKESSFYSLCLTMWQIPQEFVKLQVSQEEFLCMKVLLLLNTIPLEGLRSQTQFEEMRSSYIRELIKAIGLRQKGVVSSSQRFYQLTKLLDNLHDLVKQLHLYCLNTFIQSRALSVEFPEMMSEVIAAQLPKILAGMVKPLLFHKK
It counts as functional.

A further experiment concerns the target Prothrombin (Homo sapiens, UniProt P00734). It is filed as functional.
Experiment [7] concerns the target Sodium-dependent noradrenaline transporter (Homo sapiens, UniProt P23975).
In experiment [8] the target is Prostaglandin G/H synthase 1 (Homo sapiens, UniProt P23219). It counts as functional.
Experiment [9] deals with 5-hydroxytryptamine receptor 2B (Homo sapiens, UniProt P41595). It is filed as functional, cell-based.
Experiment [10] has as its target 3',5'-cyclic-AMP phosphodiesterase 4A (Homo sapiens, UniProt P27815). It is filed as functional.
The target in experiment [11] is T2, Progesterone receptor.
The target of experiment [12] is Vascular endothelial growth factor receptor 2 (Homo sapiens, UniProt P35968). It counts as functional.
Note: assay procedure not described here.

Chain of Melanocortin receptor 4 (P32245 whole entry): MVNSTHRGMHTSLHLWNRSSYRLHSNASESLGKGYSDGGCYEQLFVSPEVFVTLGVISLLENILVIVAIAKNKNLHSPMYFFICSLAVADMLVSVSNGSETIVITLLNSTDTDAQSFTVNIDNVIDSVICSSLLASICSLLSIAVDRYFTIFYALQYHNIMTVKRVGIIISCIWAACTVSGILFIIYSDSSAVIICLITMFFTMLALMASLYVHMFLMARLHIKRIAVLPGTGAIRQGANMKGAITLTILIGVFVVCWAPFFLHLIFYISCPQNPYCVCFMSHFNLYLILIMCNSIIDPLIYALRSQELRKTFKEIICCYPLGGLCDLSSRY
Chain of Cannabinoid receptor 1 (P21554 whole entry): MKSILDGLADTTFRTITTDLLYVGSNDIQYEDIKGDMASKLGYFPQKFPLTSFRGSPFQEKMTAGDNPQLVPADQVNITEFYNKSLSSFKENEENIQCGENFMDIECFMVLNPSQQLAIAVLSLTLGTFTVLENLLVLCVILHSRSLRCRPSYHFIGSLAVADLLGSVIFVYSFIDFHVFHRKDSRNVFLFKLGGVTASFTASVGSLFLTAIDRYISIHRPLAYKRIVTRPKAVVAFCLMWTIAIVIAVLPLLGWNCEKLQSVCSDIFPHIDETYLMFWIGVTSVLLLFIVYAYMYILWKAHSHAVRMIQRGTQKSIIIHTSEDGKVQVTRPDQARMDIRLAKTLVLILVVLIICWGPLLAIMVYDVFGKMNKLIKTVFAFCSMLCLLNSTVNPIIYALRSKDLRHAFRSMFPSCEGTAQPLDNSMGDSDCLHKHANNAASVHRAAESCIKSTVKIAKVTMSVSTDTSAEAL
Chain of Vasopressin V2 receptor (P30518 whole entry): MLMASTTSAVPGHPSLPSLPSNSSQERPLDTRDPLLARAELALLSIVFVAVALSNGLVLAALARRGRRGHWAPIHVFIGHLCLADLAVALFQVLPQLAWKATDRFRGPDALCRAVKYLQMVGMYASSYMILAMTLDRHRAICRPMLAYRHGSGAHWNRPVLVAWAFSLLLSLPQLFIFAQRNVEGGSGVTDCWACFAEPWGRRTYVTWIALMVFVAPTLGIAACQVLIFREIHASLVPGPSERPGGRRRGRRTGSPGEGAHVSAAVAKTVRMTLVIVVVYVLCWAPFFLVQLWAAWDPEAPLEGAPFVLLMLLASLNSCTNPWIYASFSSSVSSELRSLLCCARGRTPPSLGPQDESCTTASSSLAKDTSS
Chain of 5-hydroxytryptamine receptor 2A (P28223 whole entry): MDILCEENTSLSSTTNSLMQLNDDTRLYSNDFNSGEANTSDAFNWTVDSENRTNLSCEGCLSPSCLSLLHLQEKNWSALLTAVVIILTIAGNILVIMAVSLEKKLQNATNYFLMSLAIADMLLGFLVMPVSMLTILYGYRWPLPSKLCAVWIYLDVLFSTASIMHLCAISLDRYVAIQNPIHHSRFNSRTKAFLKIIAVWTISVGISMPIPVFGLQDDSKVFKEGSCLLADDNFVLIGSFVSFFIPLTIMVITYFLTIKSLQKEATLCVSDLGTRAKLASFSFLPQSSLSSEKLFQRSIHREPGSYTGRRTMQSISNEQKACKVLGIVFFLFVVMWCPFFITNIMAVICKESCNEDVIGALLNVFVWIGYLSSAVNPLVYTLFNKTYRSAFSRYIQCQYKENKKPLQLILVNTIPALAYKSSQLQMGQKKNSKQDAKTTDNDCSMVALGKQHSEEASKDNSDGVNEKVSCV
Chain of Voltage-dependent L-type calcium channel subunit alpha-1C (P22002 whole entry): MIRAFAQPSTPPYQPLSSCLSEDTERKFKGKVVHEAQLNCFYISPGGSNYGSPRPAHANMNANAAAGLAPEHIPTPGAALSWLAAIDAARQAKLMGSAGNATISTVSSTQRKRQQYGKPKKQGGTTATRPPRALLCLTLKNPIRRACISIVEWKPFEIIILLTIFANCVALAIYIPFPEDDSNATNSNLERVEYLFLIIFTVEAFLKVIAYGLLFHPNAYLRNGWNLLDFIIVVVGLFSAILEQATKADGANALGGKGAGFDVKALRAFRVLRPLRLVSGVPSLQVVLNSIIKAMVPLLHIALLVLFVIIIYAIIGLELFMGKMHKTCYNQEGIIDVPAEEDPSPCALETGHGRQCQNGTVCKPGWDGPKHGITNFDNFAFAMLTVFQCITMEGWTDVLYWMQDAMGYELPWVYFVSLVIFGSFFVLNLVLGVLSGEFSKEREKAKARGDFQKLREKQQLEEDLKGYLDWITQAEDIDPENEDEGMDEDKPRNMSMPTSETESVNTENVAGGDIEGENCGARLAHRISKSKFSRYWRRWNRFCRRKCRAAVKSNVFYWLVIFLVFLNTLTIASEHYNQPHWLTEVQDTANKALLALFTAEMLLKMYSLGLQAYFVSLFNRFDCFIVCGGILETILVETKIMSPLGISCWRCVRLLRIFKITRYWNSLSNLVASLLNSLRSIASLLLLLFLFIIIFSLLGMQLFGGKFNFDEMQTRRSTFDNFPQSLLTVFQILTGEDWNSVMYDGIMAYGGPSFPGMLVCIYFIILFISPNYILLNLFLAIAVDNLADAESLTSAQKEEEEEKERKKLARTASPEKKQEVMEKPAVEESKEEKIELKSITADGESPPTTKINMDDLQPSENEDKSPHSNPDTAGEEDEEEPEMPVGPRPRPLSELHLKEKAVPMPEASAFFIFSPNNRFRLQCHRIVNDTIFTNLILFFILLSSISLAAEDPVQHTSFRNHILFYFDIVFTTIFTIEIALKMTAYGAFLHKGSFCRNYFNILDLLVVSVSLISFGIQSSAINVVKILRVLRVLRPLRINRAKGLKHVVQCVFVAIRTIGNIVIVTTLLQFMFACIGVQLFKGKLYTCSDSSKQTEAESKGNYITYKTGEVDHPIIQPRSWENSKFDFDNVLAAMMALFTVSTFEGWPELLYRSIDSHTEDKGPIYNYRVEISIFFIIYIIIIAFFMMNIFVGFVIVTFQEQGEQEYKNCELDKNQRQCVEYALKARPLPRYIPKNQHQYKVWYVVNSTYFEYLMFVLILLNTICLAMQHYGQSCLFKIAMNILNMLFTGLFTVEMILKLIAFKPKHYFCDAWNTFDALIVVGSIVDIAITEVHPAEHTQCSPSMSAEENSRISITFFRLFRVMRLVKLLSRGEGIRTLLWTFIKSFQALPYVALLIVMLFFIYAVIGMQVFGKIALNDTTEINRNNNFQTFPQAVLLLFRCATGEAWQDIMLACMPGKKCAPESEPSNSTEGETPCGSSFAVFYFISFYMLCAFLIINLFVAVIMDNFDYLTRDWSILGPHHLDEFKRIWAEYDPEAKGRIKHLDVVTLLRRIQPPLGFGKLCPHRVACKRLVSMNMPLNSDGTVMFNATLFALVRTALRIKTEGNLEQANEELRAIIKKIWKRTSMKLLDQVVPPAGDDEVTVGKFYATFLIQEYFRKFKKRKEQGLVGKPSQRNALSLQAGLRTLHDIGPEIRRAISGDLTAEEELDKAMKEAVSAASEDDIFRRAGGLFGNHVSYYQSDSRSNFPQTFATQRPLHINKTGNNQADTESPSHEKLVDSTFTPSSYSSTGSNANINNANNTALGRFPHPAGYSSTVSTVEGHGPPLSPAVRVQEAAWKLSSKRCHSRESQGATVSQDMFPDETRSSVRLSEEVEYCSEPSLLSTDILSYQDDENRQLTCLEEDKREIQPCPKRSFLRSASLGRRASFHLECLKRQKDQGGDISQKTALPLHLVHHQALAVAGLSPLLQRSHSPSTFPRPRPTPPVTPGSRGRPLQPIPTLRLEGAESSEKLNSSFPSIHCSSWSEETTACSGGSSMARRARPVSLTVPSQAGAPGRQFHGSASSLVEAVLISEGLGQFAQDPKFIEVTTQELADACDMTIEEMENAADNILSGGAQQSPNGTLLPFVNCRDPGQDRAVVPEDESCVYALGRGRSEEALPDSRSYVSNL
Chain of Beta-2 adrenergic receptor (P07550 whole entry): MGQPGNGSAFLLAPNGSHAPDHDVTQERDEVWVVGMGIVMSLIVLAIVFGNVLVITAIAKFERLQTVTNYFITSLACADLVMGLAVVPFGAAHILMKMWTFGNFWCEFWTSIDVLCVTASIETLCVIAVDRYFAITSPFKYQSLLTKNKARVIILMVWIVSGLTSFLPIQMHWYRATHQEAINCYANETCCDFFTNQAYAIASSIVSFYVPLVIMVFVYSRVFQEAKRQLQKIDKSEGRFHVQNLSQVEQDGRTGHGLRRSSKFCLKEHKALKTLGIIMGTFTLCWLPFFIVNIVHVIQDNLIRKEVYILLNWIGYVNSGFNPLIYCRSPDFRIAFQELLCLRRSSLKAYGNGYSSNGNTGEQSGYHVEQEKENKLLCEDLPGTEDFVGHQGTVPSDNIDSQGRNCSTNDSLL
Chain of Sodium-dependent noradrenaline transporter (P23975 whole entry): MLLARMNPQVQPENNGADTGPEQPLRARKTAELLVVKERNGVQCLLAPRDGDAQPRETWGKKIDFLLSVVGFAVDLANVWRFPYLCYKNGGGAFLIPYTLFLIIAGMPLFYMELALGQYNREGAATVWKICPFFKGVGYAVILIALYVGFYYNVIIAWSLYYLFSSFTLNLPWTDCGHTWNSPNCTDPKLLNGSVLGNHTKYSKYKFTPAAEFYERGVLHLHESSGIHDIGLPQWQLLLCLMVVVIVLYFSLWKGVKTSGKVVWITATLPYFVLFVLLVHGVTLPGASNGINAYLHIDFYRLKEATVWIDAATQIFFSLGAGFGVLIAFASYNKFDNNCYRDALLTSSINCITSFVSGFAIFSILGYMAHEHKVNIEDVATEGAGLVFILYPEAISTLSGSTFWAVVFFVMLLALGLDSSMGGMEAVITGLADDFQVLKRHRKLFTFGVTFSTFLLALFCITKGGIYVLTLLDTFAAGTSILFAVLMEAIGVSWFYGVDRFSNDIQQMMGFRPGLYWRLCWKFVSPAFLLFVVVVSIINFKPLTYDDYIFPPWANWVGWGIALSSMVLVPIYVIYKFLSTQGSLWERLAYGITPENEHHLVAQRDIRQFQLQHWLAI

For `C=CC1=C(C(=O)O)N2C(=O)[C@@H](NC(=O)/C(=N\O)c3csc(N)n3)[C@H]2SC1`, the AC50 (usually the concentration giving half of the maximal activity seen) was greater than 10 µM in experiment [1]; greater than 30 µM at Cannabinoid receptor 1; greater than 30 µM in [2]; greater than 10 µM in experiment [3]; greater than 10 µM in experiment [4]; greater than 30 µM in experiment [5]. The AC50 at Vasopressin V2 receptor and on Melanocortin receptor 4 was greater than 30 µM each time.
As for `O=C(O)COC(=O)Cc1ccccc1Nc1c(Cl)cccc1Cl` [ACECLOFENAC], the half-maximal activity concentration (AC50) on Cannabinoid receptor 1 was greater than 30 µM; in experiment [2], greater than 10 µM; in experiment [3], greater than 10 µM; in [4], greater than 10 µM; at Vasopressin V2 receptor, greater than 30 µM; on Melanocortin receptor 4, greater than 30 µM.
Turning to `NCCCCCC(=O)O` [AMINOCAPROIC ACID], the AC50 (in experiment [2]; in [3]; in experiment [4]; on Vasopressin V2 receptor; at Melanocortin receptor 4; at Progesterone receptor [6]) was greater than 10 µM each time.
Regarding `CC(C)C[C@H](NC(=O)[C@H](Cc1ccccc1)NC(=O)c1cnccn1)B(O)O` [BORTEZOMIB], the AC50 (in experiment [1]; in experiment [2]; in experiment [3]; in experiment [4]; in experiment [5]; on Vasopressin V2 receptor) was greater than 30 µM in each case. Besides, the AC50 on Melanocortin receptor 4 and at Progesterone receptor [6] was greater than 30 µM in each case.
As for `C[C@H](CS)C(=O)N1CCC[C@H]1C(=O)O` [CAPTOPRIL], the AC50 is greater than 10 µM in [2]; greater than 10 µM in experiment [3]; greater than 10 µM in experiment [4]; greater than 30 µM at Vasopressin V2 receptor; greater than 30 µM on Melanocortin receptor 4.
In the case of `CCN(CC)CCn1c(=O)c(Cc2ccc(OC)cc2)nc2ccccc21` [CAROVERINE], the AC50 is 21 µM in [1]; greater than 30 µM at Cannabinoid receptor 1; greater than 30 µM in [2]; greater than 30 µM in experiment [3]; greater than 30 µM in [4]; greater than 30 µM in experiment [5]. Moreover, the AC50 at Vasopressin V2 receptor, at Melanocortin receptor 4 and on Progesterone receptor [6] was greater than 30 µM throughout.
Consider `C[C@]12CCC(=O)C=C1CC[C@H]1[C@@H]3CC[C@](O)(C(=O)CO)[C@@]3(C)C[C@H](O)[C@@]12F` [FLUDROCORTISONE], for which the AC50 in [1] is greater than 10 µM; at Cannabinoid receptor 1, greater than 30 µM; in experiment [2], greater than 10 µM; in experiment [3], greater than 10 µM; in experiment [4], greater than 10 µM; in experiment [5], greater than 30 µM. In addition, the concentration at half-maximal activity (AC50) at Vasopressin V2 receptor and on Melanocortin receptor 4 was greater than 30 µM in each case.
On to `NCC1(CC(=O)O)CCCCC1` [GABAPENTIN], for which the concentration at half-maximal activity (AC50) was greater than 30 µM on Prothrombin; greater than 30 µM at Cannabinoid receptor 1; greater than 10 µM in [2]; greater than 30 µM in experiment [7]; greater than 30 µM in experiment [8]; greater than 10 µM in [3]. In addition, the AC50 in experiment [9] is greater than 30 µM; in [10], greater than 30 µM; in experiment [4], greater than 10 µM; on Vasopressin V2 receptor, greater than 30 µM; at Melanocortin receptor 4 it was greater than 30 µM; at Progesterone receptor [6], greater than 30 µM. Besides, the AC50 (at Progesterone receptor [11]; in [12]) was greater than 30 µM in each case.
Turning to `CCN(CCO)CCCC(C)Nc1ccnc2cc(Cl)ccc12` (stereo unspecified) [HYDROXYCHLOROQUINE], the AC50 (in experiment [2]; in [3]; in experiment [4]; on Vasopressin V2 receptor; at Melanocortin receptor 4; on Progesterone receptor [6]) was greater than 10 µM each time.
Take `OCCOCCN1CCN(C(c2ccccc2)c2ccc(Cl)cc2)CC1` (stereo unspecified) [HYDROXYZINE]: the concentration at half-maximal activity (AC50) in [1] is 8 µM; on Cannabinoid receptor 1, greater than 30 µM; in experiment [2] it was greater than 10 µM; in [3], greater than 10 µM; in experiment [4], greater than 10 µM; in experiment [5], greater than 30 µM. The AC50 on Vasopressin V2 receptor and at Melanocortin receptor 4 was greater than 30 µM in each case.
For the molecule `O=C(c1ccccc1)c1ccc2n1CCC2C(=O)O` (stereo unspecified) [KETOROLAC], the AC50 was greater than 10 µM in experiment [2]; greater than 30 µM in [3]; greater than 30 µM in experiment [4]; greater than 10 µM at Vasopressin V2 receptor; greater than 10 µM on Melanocortin receptor 4; greater than 10 µM on Progesterone receptor [6].
As to `Nc1nnc(-c2cccc(Cl)c2Cl)c(N)n1` [LAMOTRIGINE], the AC50 was greater than 10 µM in experiment [2], greater than 10 µM in experiment [3], greater than 30 µM on Vasopressin V2 receptor and greater than 30 µM on Melanocortin receptor 4.
Take `CNC1(C)C2CCC(C2)C1(C)C` (stereo unspecified) [MECAMYLAMINE]: the AC50 (in [1]; in [2]; in [3]; in experiment [4]; in experiment [5]; at Vasopressin V2 receptor) was greater than 10 µM each time. Also, the AC50 on Melanocortin receptor 4 and at Progesterone receptor [6] was greater than 10 µM throughout.
As to `CCC1(c2ccccc2)C(=O)NCNC1=O` [PRIMIDONE], the half-maximal activity concentration (AC50) (in experiment [2]; in experiment [3]; in experiment [4]; at Vasopressin V2 receptor; on Melanocortin receptor 4; at Progesterone receptor [6]) was greater than 10 µM each time.
On to `CC(=O)SCC(Cc1ccccc1)C(=O)NCC(=O)OCc1ccccc1` (stereo unspecified) [RACECADOTRIL], for which the AC50 is greater than 30 µM in experiment [1]; 17 µM on Cannabinoid receptor 1; greater than 10 µM in [2]; greater than 30 µM in experiment [3]; 28 µM in experiment [4]; greater than 30 µM in experiment [5]. Moreover, the AC50 on Vasopressin V2 receptor, on Melanocortin receptor 4 and at Progesterone receptor [6] was greater than 30 µM throughout.
In the case of `CCOc1ccccc1OCCN[C@H](C)Cc1ccc(OC)c(S(N)(=O)=O)c1` [TAMSULOSIN], the AC50 was 1.9 µM in experiment [1]; 2.2 µM in experiment [2]; greater than 10 µM in [3]; greater than 10 µM in experiment [4]; greater than 30 µM in [5]; greater than 30 µM at Vasopressin V2 receptor. The same molecule had an AC50 at Melanocortin receptor 4 greater than 30 µM.
Turning to `C[C@H](Cn1cnc2c(N)ncnc21)OCP(=O)(O)O` [TENOFOVIR ANHYDROUS], the AC50 (in [1]; in experiment [2]; in experiment [3]; in [4]; in [5]; on Vasopressin V2 receptor) was greater than 30 µM in each case. In addition, the half-maximal activity concentration (AC50) at Melanocortin receptor 4 and on Progesterone receptor [6] was greater than 30 µM each time.
